Measurements as given in patent US9079910B2, “5-(1,2,3-triazol-4-yl)-7H-pyrrolo[2,3-D]pyrimidine derivatives” (Merck Patent GmbH, priority 2011, dated 2015).

Key:
[1] = biological target: T1, PDK1 (Homo sapiens, UniProt O15530); assay: Test for the inhibition of PDK1 (flashplate, 33P-ATP); format: biochemical; conditions: His6-PDK1, 4 μM ATP, 30° C., 60 min
T1 construct: His6 (N)
T1 sequence (O15530 51-556 limits assumed): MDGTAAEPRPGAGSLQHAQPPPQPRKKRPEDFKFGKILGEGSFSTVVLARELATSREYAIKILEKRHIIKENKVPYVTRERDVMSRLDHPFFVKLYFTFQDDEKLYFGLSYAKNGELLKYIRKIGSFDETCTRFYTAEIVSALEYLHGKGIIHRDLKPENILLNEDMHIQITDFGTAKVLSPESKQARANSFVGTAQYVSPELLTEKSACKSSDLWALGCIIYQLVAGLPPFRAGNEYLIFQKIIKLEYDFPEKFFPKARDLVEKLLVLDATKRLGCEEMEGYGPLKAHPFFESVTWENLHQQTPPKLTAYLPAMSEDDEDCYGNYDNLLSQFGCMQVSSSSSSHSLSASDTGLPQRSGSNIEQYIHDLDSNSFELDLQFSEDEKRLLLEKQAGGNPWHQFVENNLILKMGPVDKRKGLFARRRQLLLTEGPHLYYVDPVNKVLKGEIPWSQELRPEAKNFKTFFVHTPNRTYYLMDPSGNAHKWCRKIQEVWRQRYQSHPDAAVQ
Description: 4.0 Test for the Inhibition of PDK1
The experimental batches are carried out in a flashplate system with 384 wells/microtitration plate.
In each case, the PDK1 sample His6-PDK1(1-50)(3.4 nM), the PDK1 substrate biotin-bA-bA-[…] (400 nM), 4 μM ATP (with 0.2 μCi of ^33P-ATP/well) and the test substance in 50 μl of conventional experimental solution per well are incubated at 30° C. for 60 min. The test substances are employed in corresponding concentrations (if desired in a dilution series). The control is carried out without test substance. The reaction is stopped using standard methods and washed. The activity of the kinase is measured via the incorporated radioactivity in top count. In order to determine the non-specific kinase reaction (blank value), the experimental batches are carried out in the presence of 100 nM staurosporine.
The radioactivity (decompositions per minute) of the blank value (no use of test substance in the presence of staurosporine) is subtracted from all other radioactivity values. The controls (kinase activity without test substance) are set equal to 100 percent and all other radioactivity values (after subtracting the blank value) are expressed set in relation thereto (for example in % of the control).
IC50 values (50% inhibition) are determined with the aid of statistics programmes, such as, for example, RS1.

[2] = biological target: T2, TANK binding kinase (TBK1) (Homo sapiens, UniProt Q9UHD2); assay: TBK1 kinase test (384-well flashplate assay); format: biochemical; conditions: 0.6 nM TBK1, 10 μM ATP, 30° C., 120 min
T2 sequence (Q9UHD2 1-729): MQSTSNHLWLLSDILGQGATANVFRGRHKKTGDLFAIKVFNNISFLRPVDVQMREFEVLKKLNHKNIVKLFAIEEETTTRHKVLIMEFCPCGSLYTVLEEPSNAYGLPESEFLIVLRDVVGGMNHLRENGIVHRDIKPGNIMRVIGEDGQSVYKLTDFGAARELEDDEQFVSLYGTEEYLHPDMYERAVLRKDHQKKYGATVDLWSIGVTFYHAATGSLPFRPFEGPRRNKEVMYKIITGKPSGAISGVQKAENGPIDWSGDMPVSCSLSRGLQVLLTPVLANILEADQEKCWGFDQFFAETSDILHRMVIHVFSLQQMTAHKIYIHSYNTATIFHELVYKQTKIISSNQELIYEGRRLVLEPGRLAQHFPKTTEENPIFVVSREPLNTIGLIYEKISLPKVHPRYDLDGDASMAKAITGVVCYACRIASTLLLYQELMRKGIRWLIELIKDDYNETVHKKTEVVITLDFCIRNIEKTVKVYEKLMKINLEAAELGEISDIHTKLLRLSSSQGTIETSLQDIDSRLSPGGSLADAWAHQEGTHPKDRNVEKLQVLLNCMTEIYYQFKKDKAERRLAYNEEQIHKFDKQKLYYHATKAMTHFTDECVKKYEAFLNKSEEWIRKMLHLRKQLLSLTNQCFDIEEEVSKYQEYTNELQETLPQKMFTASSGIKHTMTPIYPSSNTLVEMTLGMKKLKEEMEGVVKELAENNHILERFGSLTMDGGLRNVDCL
Description: The kinase assay is performed as 384-well flashplate assay. 0.6 nM TANK binding kinase (TBK1), 800 nM biotinylated MELK-derived peptide (biotin-Ah-Ah-[…]) and 10 μM ATP (with 0.25 μCi of ^33P-ATP/well) are incubated in a total volume of 50 μl (10 mM MOPS, 10 mM magnesium acetate, 0.1 mM EGTA, 1 mM DTT, 0.02% of Brij35, 0.1% of BSA, pH 7.5) with or without test substance at 30° C. for 120 min. The reaction is stopped using 25 μl of 200 mM EDTA solution, filtered off with suction after 30 min at room temperature, and the wells are washed 3 times with 100 μl of 0.9% NaCl solution. The non-specific proportion of the kinase reaction (blank) is determined using 100 nM staurosporine. Radioactivity is measured in the Topcount. IC50 values are calculated using RS1.

[3] = biological target: T3, IKKepsilon (Homo sapiens, UniProt Q14164); assay: IKK kinase test (IKKepsilon) (384-well flashplate assay); format: biochemical; conditions: 1 nM IKK, 10 μM ATP, 30° C., 120 min
T3 sequence (Q14164 1-716): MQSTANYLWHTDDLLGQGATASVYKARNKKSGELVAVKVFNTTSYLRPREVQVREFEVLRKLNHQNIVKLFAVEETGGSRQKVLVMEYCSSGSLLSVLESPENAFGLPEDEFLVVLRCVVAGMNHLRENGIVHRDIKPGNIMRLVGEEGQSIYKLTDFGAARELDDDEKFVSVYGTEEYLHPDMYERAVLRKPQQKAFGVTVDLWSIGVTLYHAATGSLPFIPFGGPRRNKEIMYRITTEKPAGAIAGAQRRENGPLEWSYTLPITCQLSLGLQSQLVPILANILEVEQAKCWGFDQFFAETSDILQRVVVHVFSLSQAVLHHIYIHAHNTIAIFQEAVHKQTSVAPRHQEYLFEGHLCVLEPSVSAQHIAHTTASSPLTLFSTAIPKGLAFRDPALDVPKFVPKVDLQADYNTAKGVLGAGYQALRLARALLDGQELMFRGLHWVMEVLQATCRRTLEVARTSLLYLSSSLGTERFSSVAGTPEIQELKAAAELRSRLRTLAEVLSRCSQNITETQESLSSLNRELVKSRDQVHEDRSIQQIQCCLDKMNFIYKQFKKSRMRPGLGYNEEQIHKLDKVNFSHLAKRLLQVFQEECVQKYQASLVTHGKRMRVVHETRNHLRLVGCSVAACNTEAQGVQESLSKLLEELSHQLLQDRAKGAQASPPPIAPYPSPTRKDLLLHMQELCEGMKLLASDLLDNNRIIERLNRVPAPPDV
Description: IKK—Kinase Test (IKKepsilon)
The kinase assay is performed as 384-well flashplate assay.
1 nM IKK, 800 nM biotinylated I B (19-42) peptide (biotin-C6-C6-[…]) and 10 μM ATP (with 0.3 μCi of ^33P-ATP/well) are incubated in a total volume of 50 μl (10 mM MOPS, 10 mM magnesium acetate, 0.1 mM EGTA, 1 mM dithiothreitol, 0.02% of Brij35, 0.1% of BSA, 0.1% of BioStab, pH 7.5) with or without test substance at 30° C. for 120 min. The reaction is stopped using 25 μl of 200 mM EDTA solution, filtered off with suction after 30 min at room temperature, and the wells are washed 3 times with 100 μl of 0.9% NaCl solution. The non-specific proportion of the kinase reaction (blank) is determined using 3 μM BX-795. Radioactivity is measured in the Topcount. IC50 values are calculated using RS1.

[4] = tested on: A2780; assay: Vitality assay (tumour cell proliferation/vitality, Alamar Blue), A2780; format: cell-based; conditions: Homo sapiens, 96 h, A2780 cells, 4 days
Description: (§1) In the present experiment description, the inhibition of tumour cell proliferation/tumour cell vitality by active compounds is described.
(§2) The cells are sown in a suitable cell density in microtitre plates (96-well format) and the test substances are added in the form of a concentration series. After four further days of cultivation in serum-containing medium, the tumour cell proliferation/tumour cell vitality can be determined by means of an Alamar Blue test system.
(§3) The cells are cultivated in medium. At intervals of several days, the cells are detached from the culture dishes with the aid of trypsin solution and sown in suitable dilution in fresh medium. The cells are cultivated at 37° Celsius and 10% CO2. […]
(§4) In each case, 20 μl of Alamar Blue reagent are added per well, and the microtitre plates are incubated, for example, for a further seven hours in a CO2 incubator (at 37° C. and 10% CO2). The plates are measured in a reader with a fluorescence filter at a wavelength of 540 nm. […]
(§5) The absorbance value of the medium control (no cells and test substances used) is subtracted from all other absorbance values. The controls (cells without test substance) are set equal to 100 percent, and all other absorbance values are set in relation thereto (for example in % of control):
(§6) IC50 values (50% inhibition) are determined with the aid of statistics programs, such as, for example, RS1.

[5] = tested on: HCT 116; assay: Vitality assay (tumour cell proliferation/vitality, Alamar Blue), HCT 116; format: cell-based; conditions: Homo sapiens, 96 h, HCT 116 cells, 4 days
Description: as §1, §2, §3, §4, §5, §6

Q: How did the IC50 [1] turn out when COCCOc1ncnc2[nH]cc(-c3cn(Cc4ccccc4)nn3)c12 [Compound A1, 5-(1-benzyl-1H-1,2,3-triazol-4-yl)-4-(2-methoxyethoxy)-7H-pyrrolo[2,3-d]pyrimidine] was run?
A: Its IC50 is 10 to 1000 nM.

Q: And the IC50 [2]?
A: Its IC50 is 10 to 1000 nM.

Q: What about the IC50 [3] of the same compound?
A: Its IC50 is 1000 to 10000 nM.

Q: What about the IC50 [4] of the same compound?
A: Its IC50 is 1000 to 10000 nM.

Q: What about the IC50 [5] of the same compound?
A: The IC50 was 1000 to 10000 nM.

Q: What does the source list for COc1ncnc2[nH]cc(-c3cn(Cc4ccccc4)nn3)c12 [Compound A2]?
A: IC50 [1]: 10 to 1000 nM; IC50 [2]: 10 to 1000 nM; IC50 [3]: 10 to 1000 nM

Q: What does the source list for c1ccc(Cn2cc(-c3c[nH]c4ncncc34)nn2)cc1 [Compound A6, 5-(1-benzyl-1H-1,2,3-triazol-4-yl)-7H-pyrrolo[2,3-d]pyrimidine]?
A: IC50 [1]: 1000 to 10000 nM; IC50 [2]: 1000 to 10000 nM; IC50 [3]: 1000 to 10000 nM

Q: For Fc1cccc(C(CCN2CCCCC2)n2cc(-c3c[nH]c4ncncc34)nn2)c1F (centres unmarked) [Compound A9, 5-{1-[1-(2,3-difluorophenyl)-3-piperidin-1-ylpropyl]-1H-1,2,3-triazol-4-yl}-7H-pyrrolo[2,3-d]pyrimidine], which IC50 [1] is on record?
A: The IC50 was 1000 to 10000 nM.

Q: What about the IC50 [2] of the same compound?
A: Its IC50 is over 10000 nM.

Q: And the IC50 [3]?
A: The IC50 was 1000 to 10000 nM.
